Experiments:
3D7 P. falciparum strain = experiment: parasite proliferation assay in infected red blood cells (SYBR Green I); format: cell-based, Plasmodium falciparum; conditions: Plasmodium falciparum, 3D7, Erythrocyte, 3D7 strain; read-out: EC50 3D7 strain
Procedure, shortened: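 P. falciparum 3D7 grown in O+ human erythrocytes to 3–8% parasitemia and exposed to compounds. Proliferation read as the increase in parasite DNA. Detection used SYBR Green I in saponin/triton-X/EDTA lysis buffer, with overnight lysis at room temperature.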

W2 strain = experiment: parasite proliferation assay in infected red blood cells (SYBR Green I), W2 strain; format: cell-based; conditions: Erythrocyte
Source text: Compounds of the invention can be assayed to measure their capacity to inhibit proliferation of parasitemia in infected red blood cells. The proliferation is quantified by the addition of SYBR Green I (INVITROGEN)® dye which has a high affinity for double stranded DNA.

SMILES | EC50 (3D7 P. falciparum strain) [nM] | EC50 (W2 strain) [nM] | EC50 (W2 strain; Plasmodium falciparum) [nM]
Fc1cccc(-c2nc3cnccn3c2Nc2ccc(Cl)c(F)c2)c1 [Compound 207] | 9310 | 2420 | 
COc1ccc(-c2nc3n(c2Nc2ccc(F)cc2)CCN(C(=O)CN)C3)cc1 [Compound 53] | 2270 | 1700 | 
Cc1ccc(Nc2c(-c3ccc(F)cc3)nc3n2CCN(C(=O)C(C)(C)N)C3)cc1Cl [Compound 632] | 15 |  | 16
CCc1ccc(Nc2c(-c3ccc(F)cc3)nc3n2CCN(C(=O)C(C)(C)N)C3)cc1 [Compound 641] | 799 |  | 1280
O=C(CO)N1CCn2c(nc(-c3ccc(F)cc3)c2Nc2ccc(F)cc2)C1 [Example 44, 1-(2-(4-fluorophenyl)-3-(4-fluorophenylamino)-5,6-dihydroimidazo[1,2-a]pyrazin-7(8H)-yl)-2-hydroxyethanone] | 720 | 477 | 
Cc1ccc(Nc2c(-c3ccc(F)cc3)nc3n2CCN(C(=O)[C@H](CO)NC(=O)C(F)(F)F)C3)cc1 [Compound 164] | > 9810 | 3760 | 
CNCC(=O)N1CCn2c(nc(-c3ccc(F)cc3)c2Nc2ccc(C)cc2)C1 [Compound 75] | 250 | 190 | 
Cc1ccc(Nc2c(-c3ccc(F)cc3)nc3n2CCN(C(=O)[C@H]2CCC[C@H]2N)C3)cc1 [Compound 193] | 90 | 75 | 
CC1(C)c2nc(-c3ccc(F)cc3)c(N[C@@H]3C[C@H]4CC[C@@H]3C4)n2CCN1C(=O)CN [Compound 667] | 104 |  | 82
Cc1ccc(Nc2c(-c3ccc(F)cc3)nc3n2CCN(C(=O)[C@H](Cc2cccc(N)c2)NC(=O)OC(C)(C)C)C3)cc1 [Compound 246] | 3880 | 1790 | 
CC(C)(N)C(=O)N1CCn2c(nc(-c3ccccc3)c2Nc2ccccc2)C1 [Compound 8] | 620 | 501 | 
CC1(C)c2nc(-c3ccc(F)cc3)c(Nc3ccc(F)cc3)n2CCN1C(=O)CNC(=O)CCc1ccccc1 [Compound 726] | 1920 |  | 1480
Cc1ccc(Nc2c(-c3ccc(F)cc3)nc3n2CCN(C(=O)C(C)Oc2cccc(Cl)c2)C3)cc1 (stereo not drawn) [Compound 203] | 970 | 369 | 
O=C(Cc1ccncc1)N1CCn2c(nc(-c3ccc(F)cc3)c2Nc2ccc(Cl)c(F)c2)C1 [Compound 302] | 170 | 149 | 
CC(C)(C)CC(C)(C)Nc1c(-c2ccccc2OCCO)nc2ccccn12 [Compound 746] | > 10000 |  | 6940
Cc1cc(C)cc(Nc2c(-c3ccccc3)nc3n2CCN(C(=O)CN)C3)c1 [Compound 2] | 3480 | 3350 | 
CN1CCn2c(nc(-c3ccc(F)cc3)c2Nc2ccc(F)c(Cl)c2)C1(C)C [Compound 627] | 170 |  | 194
O=C(CNCC(F)F)N1CCn2c(nc(-c3ccc(F)cc3)c2Nc2ccc(F)cc2)C1 [Compound 65] | 470 | 509 | 
Cc1ccc(CC(=O)N2CCn3c(nc(-c4ccc(F)cc4)c3Nc3ccc(C)cc3)C2)cc1 [Compound 232] | 50 | 44 | 
CC1(C)C(=O)NCc2nc(-c3ccc(F)cc3)c(Nc3ccc(Cl)c(F)c3)n21 [Compound 618] | 2130 |  | 2890
Cc1ccc(Nc2c(-c3ccc(F)cc3)nc3n2CC(=O)NC3)cc1 [Compound 300] | 1110 | 1170 | 
CC(=O)NCCCCNCC(=O)N1CCn2c(nc(-c3ccc(F)cc3)c2Nc2ccc(C)cc2)C1 [Compound 154] | 4270 | 3410 | 
Cc1ccc(N2Cc3nc(-c4ccc(F)cc4)c(N)n3CC2=O)cc1 [Compound 299] | > 8740 | 9400 | 

SMILES | EC50 (3D7 P. falciparum strain) [nM] | EC50 (W2 strain) [nM] | EC50 (W2 strain; Plasmodium falciparum) [nM]
CC(C)(N)C(=O)N1CCn2c(nc(-c3ccc(F)cc3)c2Nc2ccc(OC(F)(F)F)cc2)C1 [Compound 643] | 2800 |  | 2170
Cc1ccc(Nc2c(-c3ccc(F)cc3)nc3n2CCN(C(=O)[C@@H](N)CCS(C)(=O)=O)C3)cc1 [Compound 286] | 1380 | 1500 | 
CC(C)C[C@@H](N)C(=O)N1CCn2c(nc(-c3ccc(F)cc3)c2Nc2ccc(Cl)c(F)c2)C1 [Compound 394] | 50 | 43 | 
Fc1ccc(Nc2c(-c3ccc(F)cc3)nc3n2CCN(Cc2ccccc2)C3)cc1 [Compound 48] | 1840 | 1750 | 
CC(C)(C)CC(C)(C)Nc1c(-c2ccccc2OC(F)F)nc2ccccn12 [Compound 742] | 6430 |  | 11600
Cc1ccc(Nc2c(-c3ccc(F)cc3)nc3n2CCN(C(=O)C2CCOC2)C3)cc1 (stereo not drawn) [Compound 212] | 1950 | 1980 | 
CC(C)(N)C(=O)N1CCn2c(nc(-c3ccc(F)cc3)c2Nc2ccc(OC(F)F)cc2)C1 [Compound 642] | 2010 |  | 2500
NCC(=O)N1CCn2c(nc(-c3ccc(F)cc3)c2Nc2cc(F)cc(F)c2)C1 [Compound 67] | 190 | 197 | 
CN1Cc2nc(-c3ccc(F)cc3)c(Nc3ccc(F)c(F)c3)n2C(C)(C)C1 [Compound 611] | 7670 |  | 5760
CC(C)(N)C(=O)N1CCn2c(nc(-c3ccc(F)cc3)c2Nc2ccc(F)cc2F)C1 [Compound 79] | 110 | 90 | 
CC(C)[C@@H]1c2nc(-c3ccc(F)cc3)c(Nc3ccc(Cl)c(F)c3)n2CCN1C(=O)CN [Compound 602] | 170 |  | 204
CNCC(=O)N1CCn2c(nc(-c3ccc(F)cc3)c2Nc2ccc(Cl)cc2)C1 [Compound 77] | 60 | 39 | 
CNCC(=O)N1CCn2c(nc(-c3ccc(F)cc3)c2Nc2ccc(F)cc2)C1 [Example 32, 1-(2-(4-fluorophenyl)-3-(4-fluorophenylamino)-5,6-dihydroimidazo[1,2-a]pyrazin-7(8H)-yl)-2-(methylamino)ethanone] | 210 | 219 | 
CN1Cc2nc(-c3ccc(F)cc3)c(Nc3ccc(Cl)cc3)n2C(C)(C)C1 [Compound 608] | 6910 |  | 5560
C[C@@H](C(=O)N1CCn2c(nc(-c3cccc(F)c3)c2Nc2ccc(Cl)c(F)c2)C1)c1ccccc1 [Compound 222] | 140 | 103 | 
Cc1ccc(Nc2c(-c3ccc(F)cc3)nc3n2CCN(C(=O)CC(C)(O)C(F)(F)F)C3)cc1 (stereo not drawn) [Compound 120] | 110 | 123 | 
Cc1ccc(Nc2c(-c3ccc(F)cc3)nc3n2CCN(C(=O)C2(O)CC2)C3)cc1 [Compound 99] | 810 | 658 | 
CC(C)(N)C(=O)N1CCn2c(nc(-c3ccc(F)cc3)c2Nc2ccc3c(c2)OCO3)C1 [Compound 5] | 4330 | > 8900 | 
Cc1ccc(-c2c(-c3ccc(Cl)cc3)nc3n2CCN(C(=O)C(C)(C)N)C3)cc1 [Compound 47] | 6980 | 6180 | 
COC(C(=O)N1CCn2c(nc(-c3ccc(F)cc3)c2Nc2ccc(C)cc2)C1)c1ccccc1 (stereo not drawn) [Compound 125] | 50 | 44 | 
Cc1ccc(Nc2c(-c3ccc(F)cc3)nc3n2CCN(C(=O)C(O)c2ccccc2Cl)C3)cc1 (stereo not drawn) [Compound 131] | 40 | 30 | 
CC(C)(C)CC(C)(C)Nc1c(-c2ccccc2C(F)(F)F)nc2ccccn12 [Compound 745] | 3570 |  | 4230

Reference: patent US9469645B2, “Compounds and compositions for the treatment of parasitic diseases” (Novartis AG, priority 2009, dated 2016)
